In brackets after ≈: the same amount, converted by molar mass.
Assays:
[1] = target: yeast α-glucosidase enzyme; experiment: α-glucosidase inhibitory assay by the chromogenic method; type: biochemical; details: p-nitrophenyl-α-D-glucopyranoside substrate; for IC50 value: pH 7.00; for α-glucosidase inhibitory activity up to: pH 7.00, maximum inhibition
Experimental: Determination of α-Glucosidase Inhibition Activity of Compounds Isolated From P. longum:
The α-glucosidase inhibitory assay was done by the chromogenic method. In brief 10 μl of test compounds dissolved in DMSO (5 mg/ml and subsequent dilutions) were incubated for 5 min. with 5 μl of yeast α-glucosidase enzyme prepared in 100 mM phosphate buffer (pH 7.00). After 5 minutes of incubation, […] of 5 mM substrate (p-nitrophenyl-α-D-glucopyranoside prepared in the same buffer) were added. The pre-substrate and 5-min post-substrate addition absorbances were recorded at 405 nm spectrophotometrically. The increases in absorbance from pre-substrate addition to post substrate reaction were obtained. Percent inhibition was calculated by (1-O.D test/O.D control)×100 and inhibitory concentration 50% (IC50) was calculated by applying suitable regression analysis.

[2] = in vivo; cited from earlier work
Collosobruchus chinenses = details: against Collosobruchus chinenses; cited from earlier work
Toxocara canis = details: against Toxocara canis; cited from earlier work
[3] = system: p. gossipiella, H. virescens, H. ze; details: against p. gossipiella; cited from earlier work
Aedus Eriseratus larvae = details: against Aedus Eriseratus larvae; cited from earlier work
[4] = system: Leplinotarsa dectmlineata; details: against Leplinotarsa dectmlineata; cited from earlier work
Cladosporiumsphaerosperm = details: against Cladosporiumsphaerosperm; cited from earlier work
[5] = system: Moth fly (Telmatoscopus Albipunctatus); details: against Moth fly (Telmatoscopus Albipunctatus); cited from earlier work
Musca Domestica = details: against Musca Domestica; cited from earlier work
8 Mycobacterium stains = details: against 8 Mycobacterium stains; cited from earlier work

Row | SMILES | IC50 value [1] [µg/mL] | α-glucosidase inhibitory activity up to [1] | BIOLOGICAL ACTIVITY: insecticidal activity [2] | BIOLOGICAL ACTIVITY: insecticidal (Collosobruchus chinenses) | BIOLOGICAL ACTIVITY: larvicidal (Toxocara canis) | BIOLOGICAL ACTIVITY: insect growth inhibitor [3] | BIOLOGICAL ACTIVITY: larvicida activity (Aedus Eriseratus larvae) | BIOLOGICAL ACTIVITY: ovicidal [4] | BIOLOGICAL ACTIVITY: antifungal (Cladosporiumsphaerosperm) | BIOLOGICAL ACTIVITY: insecticidal [5] | BIOLOGICAL ACTIVITY: insecticidal (Musca Domestica) | BIOLOGICAL ACTIVITY: antituberculotic (8 Mycobacterium stains)
1 | CCCCCCCCCCC=Cc1ccc2c(c1)OCO2 [pipataline, 5-(1-dodecenyl)-1,3-benzodioxol] | 26.52 (≈ 91.9 µM) | up to 77.45% |  |  |  |  |  |  |  |  |  | 
2 | CC(C)CNC(=O)C=CC=CCCCCCCCCC=Cc1ccc2c(c1)OCO2 [brachystamide-B, 15-(1,3-benzodioxol-5-yl)-N(2-methylpropyl)-2,4,14-pentadecatrienamide] | 33.61 (≈ 81.7 µM) | up to 73.90% |  |  |  |  |  |  |  |  |  | 
3 | c1cc2c(cc1[C@H]1OC[C@H]3[C@@H]1CO[C@@H]3c1ccc3c(c1)OCO3)OCO2 [sesamin, 5,5-(tetrahydro-1H,3H-furo(3,4-e)furan-1,4-diyl)bis-1,3-benzodioxol] | 36.35 (≈ 103 µM) | up to 76.18% |  |  |  |  |  |  |  |  |  | 
4 | CC(C)CNC(=O)/C=C/C=C/CCCCCC/C=C/c1ccc2c(c1)OCO2 [guineensine, 13-(1,3-benzodioxol-5-yl)-N(2-methylpropyl)-2,4,12-tri decatrienamide] | 20.15 (≈ 52.5 µM) | up to 61.71% | Insecticidal activity | Insectcidal against | Larvicidal against Toxocara |  |  |  |  |  |  | 
5 | CCCCCC=CC=CC(=O)NCC(C)C [pellitorine, N-(2-methylpropyl)-2,4-decadienamide] | 34.43 (≈ 154 µM) | up to 86.03% |  | Insecticidal against |  | Insectgrowth inhibitor against | Larvicida activity against | Ovicidal against Leplinotarsa | Antifungal against | Insecticidal activities against | Insecticidal against Musca | Antituberculotic against 8

Reference: patent US7081260B2, “α-Glucosidase inhibitors from a natural source” (Council of Scientific and Industrial Research, priority 2002, dated 2006)
